Experimental findings from publication PMC10729476, “Functional characterization of four opsins and two G alpha subtypes co-expressed in the molluscan rhabdomeric photoreceptor” (BMC Biology, 2023) are described below.

For one assay, the target named is T1, Limax Opn5A (Ambigolimax valentianus, UniProt A0A455SGG5).
T1 construct: wild-type Opn5A in pMT vector, C-terminal rho 1D4 tag (ETSQVAPA; tag stated, 1D4 purification), HEK293S cells, extracted in dodecyl maltoside
T1 sequence (A0A455SGG5 1-425): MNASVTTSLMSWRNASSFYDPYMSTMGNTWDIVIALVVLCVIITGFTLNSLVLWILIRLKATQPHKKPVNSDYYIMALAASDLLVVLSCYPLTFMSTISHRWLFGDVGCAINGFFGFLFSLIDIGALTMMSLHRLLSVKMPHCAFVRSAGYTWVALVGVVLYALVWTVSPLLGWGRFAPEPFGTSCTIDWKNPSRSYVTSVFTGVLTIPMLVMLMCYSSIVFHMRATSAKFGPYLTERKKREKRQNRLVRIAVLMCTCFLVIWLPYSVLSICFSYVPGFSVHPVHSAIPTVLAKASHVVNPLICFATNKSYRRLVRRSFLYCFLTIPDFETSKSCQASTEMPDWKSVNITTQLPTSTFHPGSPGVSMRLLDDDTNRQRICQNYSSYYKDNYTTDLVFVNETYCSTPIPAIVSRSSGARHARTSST
Briefly: UV-VIS absorption spectroscopy of reconstituted purified pigment. The conditions noted are these: chromophore added to expressing cells; covalent (retinylidene Schiff base to conserved Lys, general for opsins); 1% dodecyl maltoside extraction; 4 °C; low expression, impurities, spectrum fitted with. It is filed as binding.

The target in the next assay is T2, Limax xenopsin (Ambigolimax valentianus, UniProt A0A455SJK2).
T2 construct: wild-type xenopsin in pMT vector, C-terminal rho 1D4 tag (ETSQVAPA; tag stated, 1D4 purification), HEK293S cells, extracted in dodecyl maltoside
T2 sequence (A0A455SJK2 1-421): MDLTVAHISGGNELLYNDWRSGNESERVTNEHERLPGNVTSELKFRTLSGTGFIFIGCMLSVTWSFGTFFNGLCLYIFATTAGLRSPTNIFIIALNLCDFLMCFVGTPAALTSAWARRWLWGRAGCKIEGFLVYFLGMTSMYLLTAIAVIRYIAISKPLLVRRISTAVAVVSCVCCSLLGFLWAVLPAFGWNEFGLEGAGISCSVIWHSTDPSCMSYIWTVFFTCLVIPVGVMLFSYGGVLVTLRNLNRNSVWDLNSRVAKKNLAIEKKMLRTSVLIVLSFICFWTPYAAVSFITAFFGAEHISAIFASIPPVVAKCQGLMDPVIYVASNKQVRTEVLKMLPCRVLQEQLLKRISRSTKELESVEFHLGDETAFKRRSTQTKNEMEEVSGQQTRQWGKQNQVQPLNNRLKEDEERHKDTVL
Described as above. It counts as binding. To be noted: chromophore added to expressing cells; covalent (retinylidene Schiff base to conserved Lys, general for opsins); 1% dodecyl maltoside extraction; 4 °C.

As for `CC1=C(/C=C/C(C)=C/C=C\C(C)=C\C=O)C(C)(C)CCC1` [11-cis retinal], the “UV-VIS absorption spectroscopy of reconstituted purified pigment” value at Limax Opn5A is on record as “After the addition of the 11-cis retinal, opsin-based pigments were extracted”; on Limax xenopsin, “After the addition of the 11-cis retinal, opsin-based pigments were extracted”.
